Source: PubChem BioAssay AID1224913

Biological target: Proto-oncogene tyrosine-protein kinase Src (Homo sapiens) (UniProt P12931)
Assay: cellular SRC kinase inhibition, late-stage follow-up, cell-based, Western blot (AID 1224913)
Settings: MDA-MB-231/MCF7 cells, pSRC Y416 Western blot; at 0.1 µM; stronger effect = higher value

Chain of Proto-oncogene tyrosine-protein kinase Src (Homo sapiens) (P12931 whole entry, looked up): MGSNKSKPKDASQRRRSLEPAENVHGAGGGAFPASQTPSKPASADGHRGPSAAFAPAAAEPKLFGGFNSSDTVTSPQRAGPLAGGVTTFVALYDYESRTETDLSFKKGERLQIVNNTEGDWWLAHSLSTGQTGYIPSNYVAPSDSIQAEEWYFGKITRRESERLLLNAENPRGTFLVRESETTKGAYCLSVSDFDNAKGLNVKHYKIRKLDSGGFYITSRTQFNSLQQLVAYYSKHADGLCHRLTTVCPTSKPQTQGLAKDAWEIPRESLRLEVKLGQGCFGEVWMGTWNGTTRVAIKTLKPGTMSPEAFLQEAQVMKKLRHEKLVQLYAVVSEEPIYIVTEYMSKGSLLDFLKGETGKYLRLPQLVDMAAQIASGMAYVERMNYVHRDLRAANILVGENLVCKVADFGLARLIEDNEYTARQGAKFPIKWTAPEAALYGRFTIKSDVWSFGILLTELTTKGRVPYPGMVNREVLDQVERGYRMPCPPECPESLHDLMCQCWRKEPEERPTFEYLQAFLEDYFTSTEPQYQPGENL

COc1cc(-c2nn(CCN3CCC(N(C)C)CC3)c3ncnc(N)c23)ccc1NC(=O)OC(C)(C)C
inhibition: 100%
